Here are results for five compounds from PMC11792831, “Design and synthesis of doublecortin-like kinase 1 inhibitors and their bioactivity evaluation” (Journal of Enzyme Inhibition and Medicinal Chemistry, 2023).

One data set has as its target T1, DCLK1 (Homo sapiens, UniProt O15075).
T1 construct: purchased Eurofins (Belgium), contract assay service
T1 sequence (O15075 1-740): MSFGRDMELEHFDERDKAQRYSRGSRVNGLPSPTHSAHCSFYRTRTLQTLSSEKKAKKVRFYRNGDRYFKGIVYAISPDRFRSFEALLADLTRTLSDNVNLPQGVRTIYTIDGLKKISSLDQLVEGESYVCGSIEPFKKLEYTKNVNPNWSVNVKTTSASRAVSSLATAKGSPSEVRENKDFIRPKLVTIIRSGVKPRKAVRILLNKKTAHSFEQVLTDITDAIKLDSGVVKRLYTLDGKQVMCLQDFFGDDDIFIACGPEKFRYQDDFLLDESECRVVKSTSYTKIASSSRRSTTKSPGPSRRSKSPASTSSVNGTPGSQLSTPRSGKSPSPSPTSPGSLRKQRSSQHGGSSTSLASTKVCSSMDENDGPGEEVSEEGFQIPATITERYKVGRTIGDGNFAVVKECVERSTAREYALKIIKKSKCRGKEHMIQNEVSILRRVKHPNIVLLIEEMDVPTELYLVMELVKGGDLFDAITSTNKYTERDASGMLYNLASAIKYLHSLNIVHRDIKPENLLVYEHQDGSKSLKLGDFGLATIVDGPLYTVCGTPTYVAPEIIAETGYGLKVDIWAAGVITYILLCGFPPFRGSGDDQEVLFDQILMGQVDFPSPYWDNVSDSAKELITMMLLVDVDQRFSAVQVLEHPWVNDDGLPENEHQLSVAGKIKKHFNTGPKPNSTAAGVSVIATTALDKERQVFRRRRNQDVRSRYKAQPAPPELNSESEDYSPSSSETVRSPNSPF
Kind of data set: In vitro DCLK1 kinase activity assay (Eurofins). In kind it is biochemical. The note with it: for Selectivity (IC50 of DCLK1/IC50 of LRRK2): ratio of IC50 values; for Selectivity (DCLK1 activity/LRRK2 activity): ratio of remaining activities at 1 uM; for IC50: read-out: IC50 of DCLK1; for activity at 1 µM: remaining kinase activity at 1 uM compound, 100% = no inhibition, 0% = complete inhibition, read-out: DCLK1 activity (%). An excerpt: (§1) Eurofins (Belgium) conducted in vitro DCLK1 and LRRK2 kinase activity assays. Compounds were sent as dry powders to Eurofins.

The next data set concerns the target T2, LRRK2 (Homo sapiens, UniProt Q5S007).
T2 construct: purchased Eurofins (Belgium), contract assay service
Kind of data set: In vitro LRRK2 kinase activity assay (Eurofins). The data set is classed as biochemical. The note with it: for activity at 1 µM: remaining kinase activity at 1 uM compound, 100% = no inhibition, 0% = complete inhibition. As for the experimental part: All compounds were tested for their kinase inhibitory activity at the concentration of 1 μM. […] Compounds with high activity or good selectivity were selected for further IC50 determination (Table 2).
as §1

In the next data set the test system is HCT116. Put plainly: In vitro cytotoxicity / anti-proliferation assay (CCK8). The data set is classed as cell-based. Particulars: Homo sapiens, HCT-116, colorectal cancer cell line HCT116, 72 h. As to the method: To determine whether DCLK1 was required for tumour cell proliferation, the cytotoxicity of compounds was evaluated in colorectal cancer cell line HCT116. HCT116 was treated with compounds for 72 h, and the cell viability was determined using CCK8 assay (Figure 4). The antiproliferative effects of most compounds on HCT116 were correlated with their DCLK1 inhibitory activities, except for compounds D1 and D2. The poor cytotoxicity of compounds D1 and D2 may be attributed to their poor cell membrane permeability due to the negatively charged carboxylates. […] Overall, targeting DCLK1 inhibited the proliferation of HCT116, indicating the importance of DCLK1 in tumour growth.
A 96-well plate (3599, Corning, USA) was inoculated with 100 μL of complete medium containing 10 000 cells, and the experimental, control, and blank groups were established. Three parallel wells were used per concentration. After 10 h, media from the experimental and control groups were replaced with a complete medium containing the indicated concentration of the compound. Cells were incubated for 72 h before 10 μL of CCK8 reagent (CA1210, Solarbio, China) was added to each well and incubated for 1 h. The absorbance at 450 nm was measured with a microplate reader (Tecan, Switzerland). The IC50 was determined using GraphPad Prism 8 and nonlinear regression curve fitting.

T2 sequence (Q5S007 whole entry): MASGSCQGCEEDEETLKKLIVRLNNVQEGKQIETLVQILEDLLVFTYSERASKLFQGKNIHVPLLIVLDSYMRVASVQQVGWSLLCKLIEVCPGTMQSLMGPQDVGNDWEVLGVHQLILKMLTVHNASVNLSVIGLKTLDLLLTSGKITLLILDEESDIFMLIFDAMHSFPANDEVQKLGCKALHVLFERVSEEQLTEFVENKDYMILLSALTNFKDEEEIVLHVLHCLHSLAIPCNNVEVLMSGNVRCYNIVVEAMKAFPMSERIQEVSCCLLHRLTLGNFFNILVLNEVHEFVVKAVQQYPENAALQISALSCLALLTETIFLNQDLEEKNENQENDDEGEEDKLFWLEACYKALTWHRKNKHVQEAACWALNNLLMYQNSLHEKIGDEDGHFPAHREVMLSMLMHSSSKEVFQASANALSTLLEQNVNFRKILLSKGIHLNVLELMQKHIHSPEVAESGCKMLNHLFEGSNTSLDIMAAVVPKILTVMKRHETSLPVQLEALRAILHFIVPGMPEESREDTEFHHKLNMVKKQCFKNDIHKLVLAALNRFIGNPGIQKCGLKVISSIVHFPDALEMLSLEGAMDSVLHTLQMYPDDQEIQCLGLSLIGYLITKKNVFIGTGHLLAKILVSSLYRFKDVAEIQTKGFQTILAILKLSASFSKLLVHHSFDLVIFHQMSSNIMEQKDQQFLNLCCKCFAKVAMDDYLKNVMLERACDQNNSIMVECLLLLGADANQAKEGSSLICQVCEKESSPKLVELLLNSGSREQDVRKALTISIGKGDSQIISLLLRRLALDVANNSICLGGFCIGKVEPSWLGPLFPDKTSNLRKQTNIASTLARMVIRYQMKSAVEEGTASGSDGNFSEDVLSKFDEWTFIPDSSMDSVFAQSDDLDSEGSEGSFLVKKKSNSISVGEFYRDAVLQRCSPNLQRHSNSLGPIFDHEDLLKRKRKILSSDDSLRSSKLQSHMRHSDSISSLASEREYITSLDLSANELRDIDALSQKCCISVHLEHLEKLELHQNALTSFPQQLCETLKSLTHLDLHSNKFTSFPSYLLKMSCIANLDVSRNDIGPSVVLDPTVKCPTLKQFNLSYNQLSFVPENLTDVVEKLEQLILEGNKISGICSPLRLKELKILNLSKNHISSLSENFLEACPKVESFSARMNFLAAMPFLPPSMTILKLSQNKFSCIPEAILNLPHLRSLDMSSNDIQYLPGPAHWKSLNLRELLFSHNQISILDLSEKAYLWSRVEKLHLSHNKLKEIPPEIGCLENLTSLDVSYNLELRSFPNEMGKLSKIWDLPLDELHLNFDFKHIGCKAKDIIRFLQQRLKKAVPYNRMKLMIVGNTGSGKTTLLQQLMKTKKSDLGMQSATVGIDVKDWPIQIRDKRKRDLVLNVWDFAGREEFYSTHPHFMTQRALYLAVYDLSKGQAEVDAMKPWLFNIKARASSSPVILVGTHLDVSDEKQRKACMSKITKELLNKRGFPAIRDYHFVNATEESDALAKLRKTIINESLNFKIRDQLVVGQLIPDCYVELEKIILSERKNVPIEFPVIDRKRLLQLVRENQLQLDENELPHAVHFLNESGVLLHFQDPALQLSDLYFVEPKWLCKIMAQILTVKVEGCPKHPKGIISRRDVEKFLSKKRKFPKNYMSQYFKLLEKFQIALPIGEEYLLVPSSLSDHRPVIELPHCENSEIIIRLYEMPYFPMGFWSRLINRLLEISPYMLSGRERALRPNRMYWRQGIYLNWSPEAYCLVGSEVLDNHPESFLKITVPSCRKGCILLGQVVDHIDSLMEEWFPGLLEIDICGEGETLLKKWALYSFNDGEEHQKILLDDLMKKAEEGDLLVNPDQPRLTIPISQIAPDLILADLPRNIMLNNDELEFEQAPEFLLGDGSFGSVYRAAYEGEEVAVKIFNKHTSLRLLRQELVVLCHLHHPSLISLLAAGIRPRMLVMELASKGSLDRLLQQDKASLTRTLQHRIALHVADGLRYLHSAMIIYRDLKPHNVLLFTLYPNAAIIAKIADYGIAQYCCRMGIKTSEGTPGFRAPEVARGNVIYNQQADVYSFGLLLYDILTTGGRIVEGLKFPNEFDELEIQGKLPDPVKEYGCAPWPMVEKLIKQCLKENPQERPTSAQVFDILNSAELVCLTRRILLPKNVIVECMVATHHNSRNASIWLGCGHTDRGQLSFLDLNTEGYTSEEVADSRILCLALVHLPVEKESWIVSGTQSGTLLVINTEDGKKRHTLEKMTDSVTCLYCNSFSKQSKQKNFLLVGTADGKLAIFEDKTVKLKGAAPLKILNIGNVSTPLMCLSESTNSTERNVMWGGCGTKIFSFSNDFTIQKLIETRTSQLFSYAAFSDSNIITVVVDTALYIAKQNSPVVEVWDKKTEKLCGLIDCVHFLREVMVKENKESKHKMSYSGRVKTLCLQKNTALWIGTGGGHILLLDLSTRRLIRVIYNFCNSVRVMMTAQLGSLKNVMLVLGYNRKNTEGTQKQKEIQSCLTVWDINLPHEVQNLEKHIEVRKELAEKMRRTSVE

A word on the IC50: it is the concentration that inhibits the measured activity by half. As a reminder, the melting point is the temperature of the solid-liquid transition. The compound `COc1cc(NC(=O)CCC(=O)O)ccc1Nc1ncc2c(n1)N(C)c1ccccc1C(=O)N2C` [Compound D2, 4-((4-((5,11-Dimethyl-6-oxo-6,11-dihydro-5H-benzo[e]pyrimido[5,4-b][1,4]diazepin-2-yl)amino)-3-methoxyphenyl)amino)-4-oxobutanoic acid] registered a melting point of 237 to 238 °C. In addition, at DCLK1, the “Selectivity (IC50 of DCLK1/IC50 of LRRK2)” value is on record as less than 0.07, the “Selectivity (DCLK1 activity/LRRK2 activity)” value is reported as 0.20, the IC50 worked out at 70 nM and the activity at 1 µM was 10%. Besides, on LRRK2, the IC50 is more than 1000 nM and the activity at 1 µM is 49%. The compound further had an IC50 with HCT116 of more than 100000 nM.

The compound `CCOc1cc(N2CCC(C(=O)O)CC2)ccc1Nc1ncc2c(n1)N(C)c1ccccc1C(=O)N2C` [Compound D3, 1-(4-((5,11-Dimethyl-6-oxo-6,11-dihydro-5H-benzo[e]pyrimido[5,4-b][1,4]diazepin-2-yl)amino)-3-ethoxyphenyl)piperidine-4-carboxylic acid] came in with a melting point of 159 to 160 °C. Moreover, at DCLK1, the “Selectivity (IC50 of DCLK1/IC50 of LRRK2)” value is listed as less than 0.34, the “Selectivity (DCLK1 activity/LRRK2 activity)” value is reported as 0.59, the IC50 is 340 nM and the activity at 1 µM amounted to 20%. Besides, at LRRK2, the IC50 is more than 1000 nM and the activity at 1 µM was 34%. The compound further yielded an IC50 with HCT116 of 21500 nM.

As to `CCOc1cc(N2CCSCC2)ccc1Nc1ncc2c(n1)N(C)c1ccccc1C(=O)N2C` [Compound D4, 2-((2-Ethoxy-4-thiomorpholinophenyl)amino)-5,11-dimethyl-5,11-dihydro-6H-benzo[e]pyrimido[5,4-b][1,4]diazepin-6-one], the melting point fell in the range of 190 to 191 °C. Besides, on DCLK1, the “Selectivity (IC50 of DCLK1/IC50 of LRRK2)” value is 0.64, the “Selectivity (DCLK1 activity/LRRK2 activity)” value is recorded as 0.55, the IC50 came to 271 nM and the activity at 1 µM was determined as 18%. Also, at LRRK2, it took 425 nM to reach half-maximal inhibition (IC50) and the activity at 1 µM amounted to 33%. The IC50 in the data set with HCT116 worked out at 28800 nM.

Consider `CCOc1cc(N2CC[S+]([O-])CC2)ccc1Nc1ncc2c(n1)N(C)c1ccccc1C(=O)N2C` [Compound D5, 2-((2-ethoxy-4-(1-Oxidothiomorpholino)phenyl)amino)-5,11-dimethyl-5,11-dihydro-6H-benzo[e]pyrimido[5,4-b][1,4]diazepin-6-one], for which the melting point is 163 to 164 °C. Besides, on DCLK1, the “Selectivity (IC50 of DCLK1/IC50 of LRRK2)” value is on record as 0.46, the “Selectivity (DCLK1 activity/LRRK2 activity)” value amounted to 0.57, the IC50 was 146 nM and the activity at 1 µM is 12%. Also, on LRRK2, the midpoint of inhibition, the IC50, lay at 320 nM and the activity at 1 µM amounted to 21%. Besides, half-maximal inhibition with HCT116 (IC50) was put at 10700 nM.

Regarding `CCOc1cc(N2CCS(=O)(=O)CC2)ccc1Nc1ncc2c(n1)N(C)c1ccccc1C(=O)N2C` [Compound D6, 2-((4-(1,1-Dioxidothiomorpholino)-2-ethoxyphenyl)amino)-5,11-dimethyl-5,11-dihydro-6H-benzo[e]pyrimido[5,4-b][1,4]diazepin-6-one], the melting point was 157 to 158 °C. Moreover, at DCLK1, the “Selectivity (IC50 of DCLK1/IC50 of LRRK2)” value was 0.38, the “Selectivity (DCLK1 activity/LRRK2 activity)” value stood at 0.47, the IC50 was 74 nM and the activity at 1 µM was 9%. Also, at LRRK2, the IC50 came to 195 nM and the activity at 1 µM amounted to 19%. For the same compound, in the data set with HCT116, half-maximal inhibition (IC50) was put at 12000 nM.
